Measurements published in article PMC8381505, “Phase 1 clinical trial of the PI3Kδ inhibitor YY-20394 in patients with B-cell hematological malignancies” (Journal of Hematology & Oncology, 2021).
Read-outs that look alike come from different tables or passages of the source.

Tests used:
basophil activation = experiment: Inhibition of basophil activation in vitro; assay type: cell-based; conditions: at the serum concentration produced by the 80 mg dose level
PI3Kα = experiment: PI3K isoform selectivity, α versus δ; assay type: biochemical
PI3Kβ = experiment: PI3K isoform selectivity, β versus δ; assay type: biochemical
[1] = test system: relapsed or refractory B-cell malignancies; experiment: Phase 1 dose escalation: efficacy (ORR, DCR, PFS) in patients; assay type: in vivo, human
Method: Patients ≥ 18 years old with refractory or relapsed B-cell malignancies were enrolled from November, 2017 to completion of the trial in November, 2019. Inclusion and exclusion criteria are listed in Additional file 2 and baseline patient characteristics in Additional file 3: Table S2.
During dose escalation, patients received YY-20394 tablets q.d. at dosages of 20, 40, 80, 140 or 200 mg. The maximum tolerated dose (MTD), dose escalation phase and dose-limiting toxicity (DLT) as well as hematological toxicity classifications are described in Additional file 4. The primary endpoints were safety, tolerability and the MTD of YY-20394. Secondary endpoints were PK parameters and efficacy. Response criteria followed the revised International Research Working Group (IRWG) for non-Hodgkin lymphomas (NHL), and the International Working Group on Chronic Lymphocytic Leukemia (IWCLL) criteria for CLL [8]. Efficacy determinations were the objective response rate (ORR), disease control rate (DCR), complete remission (CR), partial remission (PR), stable disease (SD), progressive disease (PD) and progression-free survival (PFS).

[2] = Pharmacokinetics in patients after multiple administrations; assay type: in vivo, human; conditions: for AUC(0-inf) / AUC(0-t) / Cmax / Tmax / Vd/F / half-life / MRT last: human, serum, oral; for MRT last: read-out: MRT0→t
From the text: Additional File 6: Table S4. Mean pharmacokinetic parameters of patients after multiple administrations in each dosage group

[3] = 10 FL patients, 9/10, 95% CI 71.4, 100.0
[4] = number of patients of 25 evaluable

Structure (SMILES): COc1ncc(-c2nc(N3CCOCC3)nc3c(CN4CCC(C(C)(C)O)CC4)cc(F)cc23)cc1NS(C)(=O)=O [YY-20394, N-[5-[6-fluoro-8-[[4-(1-hydroxy-1-methylethyl)-1-piperidinyl]methyl]-2-(4-morpholinyl)-4-quinazolinyl]-2-methoxy-3-pyridinyl]-methanesulfonamide]
- inhibition of basophil activation in vitro (basophil activation): 90%
- Ratio of IC50 α/δ (PI3Kα): 252
- Ratio of IC50 β/δ (PI3Kβ): 30
- Ratio of IC50 γ/δ (PI3Kγ): 1125
- kinase inhibition profile more PI3Kδ-selective (PI3Kγ; PI3Kδ versus PI3Kγ, compared with idelalisib): ~2 orders of magnitude
- longest treatment duration ([1]; 40 mg, CLL/SLL patient): 36 months
- median PFS time, follicular lymphoma ([1]; 10 FL patients): 300 days
- DCR, follicular lymphoma [1, 3]: 90%
- ORR, follicular lymphoma [1, 3]: 90%
- overall ORR ([1]; 25 evaluable patients, 16/25, 95% CI 45.2, 82.8%): 64.0%
- disease control rate (DCR) ([1]; 25 evaluable patients, 18/25, 95% CI 54.4, 89.6%): 72.0%
- median PFS time ([1]; all evaluable patients combined): 255 days
- CR, follicular lymphoma ([1]; number of FL patients, 80 mg): 3
- PD, follicular lymphoma ([1]; number of FL patients, 200 mg): 1
- PR, follicular lymphoma ([1]; number of FL patients, 1/40 mg and 5/80 mg): 6
- complete remission (CR) [1, 4]: 5
- partial remission (PR) [1, 4]: 11
- progressive disease (PD) [1, 4]: 7
- durable response ([1]; one PR patient with CLL/SLL, 40 mg q.d.): around 36 months
- CL/F ([2]; 20 mg, mean): 16.3 L/h
- Cmin ([2]; 20 mg, mean): 28.7 ng/mL
- Css ([2]; 20 mg, mean): 51.0 ng/mL
- CL/F ([2]; 40 mg, mean ± SD): 13.4 ± 3.7 L/h
- Cmin ([2]; 40 mg, mean ± SD): 73.0 ± 32.5 ng/mL
- Css ([2]; 40 mg, mean ± SD): 132.7 ± 43.0 ng/mL
- CL/F ([2]; 80 mg, mean ± SD): 11.1 ± 3.1 L/h
- Cmin ([2]; 80 mg, mean ± SD): 180.5 ± 74.5 ng/mL
- Css ([2]; 80 mg, mean ± SD): 325.7 ± 97.8 ng/mL
- CL/F ([2]; 140 mg, mean ± SD): 9.1 ± 0.6 L/h
- Cmin ([2]; 140 mg, mean ± SD): 359.6 ± 31.5 ng/mL
- Css ([2]; 140 mg, mean ± SD): 642.3 ± 40.2 ng/mL
- CL/F ([2]; 200 mg, mean ± SD): 9.4 ± 2.2 L/h
- Cmin ([2]; 200 mg, mean ± SD): 472.4 ± 71.6 ng/mL
- Css ([2]; 200 mg, mean ± SD): 918.6 ± 201.7 ng/mL
- exposure (Cmax, AUC0-t, AUC0-∞) versus dose ([2]; 20 to 200 mg): increased with dosage
- AUC(0-inf) ([2]; 20 mg, mean): 4010 ng·h/mL
- AUC(0-t) ([2]; 20 mg, mean): 1220 ng·h/mL
- Cmax ([2]; 20 mg, mean): 94.6 ng/mL
- Tmax ([2]; 20 mg, mean): 4 h
- Vd/F ([2]; 20 mg, mean): 930 L
- half-life ([2]; 20 mg, mean): 39.5 h
- MRT last ([2]; 20 mg, mean): 65.7 h
- AUC(0-inf) ([2]; 40 mg, mean ± SD): 5500 ng·h/mL
- AUC(0-t) ([2]; 40 mg, mean ± SD): 3190 ng·h/mL
- Cmax ([2]; 40 mg, mean ± SD): 208 ± 58.3 ng/mL
- Tmax ([2]; 40 mg, mean ± SD): 2.7 ± 1.2 h
- Vd/F ([2]; 40 mg, mean ± SD): 392 ± 228 L
- half-life ([2]; 40 mg, mean ± SD): 19.7 ± 7.2 h
- MRT last ([2]; 40 mg, mean ± SD): 28.1 ± 10.5 h
- AUC(0-inf) ([2]; 80 mg, mean ± SD): 16600 ng·h/mL
- AUC(0-t) ([2]; 80 mg, mean ± SD): 7820 ng·h/mL
- Cmax ([2]; 80 mg, mean ± SD): 529 ± 170 ng/mL
- Tmax ([2]; 80 mg, mean ± SD): 2.4 ± 1.7 h
- Vd/F ([2]; 80 mg, mean ± SD): 388 ± 392 L
- half-life ([2]; 80 mg, mean ± SD): 25.3 ± 25.5 h
- MRT last ([2]; 80 mg, mean ± SD): 36.4 ± 37.6 h
- AUC(0-inf) ([2]; 140 mg, mean ± SD): 24300 ng·h/mL
- AUC(0-t) ([2]; 140 mg, mean ± SD): 15400 ng·h/mL
- Cmax ([2]; 140 mg, mean ± SD): 1190 ng/mL
- Tmax ([2]; 140 mg, mean ± SD): 3.7 ± 2.5 h
- Vd/F ([2]; 140 mg, mean ± SD): 215 ± 10 L
- half-life ([2]; 140 mg, mean ± SD): 16.4 ± 0.3 h
- MRT last ([2]; 140 mg, mean ± SD): 23.4 ± 1.5 h
- AUC(0-inf) ([2]; 200 mg, mean ± SD): 36300 ng·h/mL
- AUC(0-t) ([2]; 200 mg, mean ± SD): 22000 ng·h/mL
- Cmax ([2]; 200 mg, mean ± SD): 1610 ng/mL
- Tmax ([2]; 200 mg, mean ± SD): 2 ± 1.5 h
- Vd/F ([2]; 200 mg, mean ± SD): 239 ± 110 L
- half-life ([2]; 200 mg, mean ± SD): 17.5 ± 6.3 h
- MRT last ([2]; 200 mg, mean ± SD): 25.3 ± 8.8 h
